In patent publication US10017511B2, “Pyrazolopyrimidinones for the treatment of impotence and process for the preparation thereof” (COUNCIL OF SCIENTIFIC & INDUSTRIAL RESEARCH, priority 2014, dated 2018):

Legend:
[1] = target: human PDE5A (Homo sapiens, UniProt O76074); experiment: PDE5 enzyme inhibitory assay (PDE Glo Phosphodiesterase Assay)
Method: The assays were performed by following the manufacturer recommended protocol.
Data analysis was performed with GraphPad Prism®, version 5.00, for Windows using a sigmoidal dose-response (variable slope) equation. Each point represents an average of two replicates per concentration.

[2] = system: conscious rabbit (length of uncovered penile mucosa); experiment: In vivo efficacy, conscious rabbit model of penile erection; details: 3 mg/kg intravenous, SNP 0.2 mg/kg 5 min later, measured for an hour, SNP alone values subtracted
Method: . SNP alone was also used as a control and the values obtained were subtracted from both the molecules).
Nitric oxide is the main neurotransmitter which mediates smooth muscle relaxation by activating the guanylate cyclise during penile erection, which in turn increases the cGMP level.
This solution was injected into the ear vein of a group of five healthy male rabbit (3-3.5 kg weight) in a volume of 0.5 ml/kg. The event was followed 5 minutes later by another equal volume saline injection containing Sodium nitroprusside (0.2 mg/kg), which acts as a donor of Nitric oxide (NO). Length of uncovered penile mucosa was measured with a sliding caliper at different time points for an hour after administration of the test compounds. The area under the curve (AUC) was calculated by Graph Pad Software. Controls experiments were performed with the SNP alone injections. […]

IC50 [1] | SMILES | area under the curve (AUC) of length of uncovered penile mucosa [2]
0.8 nM | CCCc1nn(C)c2c(=O)[nH]c(-c3cc(S(=O)(=O)N4CCC(=O)CC4)ccc3OCC)nc12 [Compound Aa, 5-(2-ethoxy-5-((4-oxopiperidin-1-yl)sulfonyl)phenyl)-1-methyl-3-propyl-1H-pyrazolo[4,3-d]pyrimidin-7(6H)-one] | 722
 | CCCc1nn(C)c2c(=O)[nH]c(-c3cc(S(=O)(=O)N4CCN(C)CC4)ccc3OCC)nc12 [Sildenafil, reference compound] | 330
4.8 nM | CCCc1nn(C)c2c(=O)[nH]c(-c3cc(S(=O)(=O)N4CCC(O)CC4)ccc3OCC)nc12 [Compound Ab, 5-(2-ethoxy-5-((4-hydroxypiperidin-1-yl)sulfonyl)phenyl)-1-methyl-3-propyl-1H-pyrazolo[4,3-d]pyrimidin-7(6H)-one] | 
